Here are results for 14 compounds from PubChem BioAssay (NCI).

Several values for one entry are separate records, joined by “and”; a condition that tells them apart may be missing. Equal entries are not always repeated.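 Step 1: Grow cells in 96-well plates. Step 2: Expose to compound for 48 hours at 5 concentrations. Step 3: Interpolate endpoints linearly; if unreached, use highest concentration. GI50 is the concentration that inhibits growth by half. Definition used: TGI = concentration required for complete inhibition of growth.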

The term TGI denotes the concentration at which net growth stops. High values mean lower sensitivity of the cells, low ones greater sensitivity of the cells. As a reminder, the GI50 is the concentration that inhibits growth by half.

Among the test systems are DLD-1 colon; HOP-62 NSCLC; M19-MEL melanoma; XF 498 CNS; DMS 114 small cell lung; EKVX NSCLC; SNB-75 CNS; KM12 colon; A498 renal; U251 CNS; HOP-18 NSCLC; HS 578T breast.
Holding throughout (assay): DTP human tumour cell line panel, 48 h

For the compound `C/C=C(/I)CBr`, the TGI with DLD-1 colon is 29.2 µM; in the experiment on HOP-62 NSCLC, 43.4 µM; in the experiment with M19-MEL melanoma, 28.6 µM; in the experiment on XF 498 CNS, 27 µM; with DMS 114 small cell lung, 28.4 µM; with EKVX NSCLC it was 49 µM.
`CCOc1ccc2[nH]c3c(C)c4ccncc4c(C)c3c2c1`: the TGI in the experiment with DLD-1 colon came out at 1.96 µM; in the experiment on SNB-75 CNS, 3.1 µM; in the experiment with HOP-62 NSCLC, 2.3 µM; with KM12 colon it was 2.22 µM; in the experiment with M19-MEL melanoma, 3.1 µM; in the experiment with XF 498 CNS, 2.16 µM. Further, the TGI worked out at 3.2 µM in the experiment on A498 renal, 3.01 µM in the experiment on DMS 114 small cell lung, 2.16 µM with U251 CNS and 2.9 µM in the experiment on EKVX NSCLC.
`COc1ccc(C(=O)O[C@H]2[C@@H]3C=CO[C@@H](OC4OC(CO)C(O)C(O)C4O)[C@@H]3[C@@]3(CO)O[C@@H]23)cc1O` (some centres undefined): the TGI with DLD-1 colon, in the experiment on SNB-75 CNS, in the experiment with HOP-62 NSCLC, with KM12 colon, in the experiment with M19-MEL melanoma and in the experiment with XF 498 CNS was > 100 µM in each case. Moreover, the TGI with A498 renal, in the experiment on DMS 114 small cell lung, in the experiment with U251 CNS and with EKVX NSCLC was > 100 µM throughout.
For the compound `NC(=S)/N=C(/c1nc2ccc(Cl)cc2[nH]c1=O)C(O)c1ccccc1Cl` (centres undefined), the TGI in the experiment with DLD-1 colon, in the experiment with HOP-18 NSCLC, in the experiment with SNB-75 CNS, in the experiment with HOP-62 NSCLC, with KM12 colon and in the experiment on XF 498 CNS was > 100 µM throughout. The TGI with A498 renal, with DMS 114 small cell lung, in the experiment with U251 CNS and with EKVX NSCLC was > 100 µM in each case.
Regarding `CN(C(=O)C12C3C4C5C3C1(C(=O)C13C6C7C8C6C1C8C73)C5C42)C(C)(C)C` (centres undefined), the TGI in the experiment on DLD-1 colon is > 34.7 µM; in the experiment on HOP-18 NSCLC, > 50 µM; in the experiment with SNB-75 CNS it was > 50 µM; in the experiment with HOP-62 NSCLC it was > 50 µM; in the experiment with KM12 colon, > 50 µM; in the experiment with M19-MEL melanoma it was > 50 µM. The TGI was > 50 µM in the experiment with XF 498 CNS; > 50 µM with A498 renal; > 37.6 µM in the experiment on DMS 114 small cell lung; > 50 µM in the experiment on U251 CNS; > 50 µM in the experiment with EKVX NSCLC.
For `COc1ccc(N=NC(C(=O)c2ccccc2)C(=O)c2ccccc2)cc1`, the TGI in the experiment on DLD-1 colon is 96.6 µM; with SNB-75 CNS, 74.8 µM; in the experiment on HOP-62 NSCLC, 68.5 µM; in the experiment with KM12 colon, > 100 µM; with XF 498 CNS, 71.9 µM; in the experiment with A498 renal, > 100 µM. The total growth inhibition concentration (TGI) in the experiment with DMS 114 small cell lung is 54.6 µM; in the experiment on U251 CNS it was > 100 µM; in the experiment with EKVX NSCLC it was 71.1 µM.
As to `Cc1c2ccncc2cc2c1[nH]c1ccccc12`, the TGI with DLD-1 colon was determined as 38.5 µM; with HOP-18 NSCLC it was 7.35 µM; in the experiment on SNB-75 CNS, 17 µM; in the experiment with HOP-62 NSCLC, 21.8 µM; with KM12 colon, 23.9 µM; with M19-MEL melanoma, 10.9 µM. Besides, the TGI amounted to 1.89 µM in the experiment on XF 498 CNS; 12.2 µM in the experiment on A498 renal; 16.9 µM in the experiment on DMS 114 small cell lung; 7.65 µM in the experiment on U251 CNS; 16.3 µM in the experiment on EKVX NSCLC.
Turning to `CCOC(=O)C(=O)Nc1ccccc1C`, the TGI in the experiment with DLD-1 colon is > 100 µM; with SNB-75 CNS, > 100 µM; in the experiment with HOP-62 NSCLC it was > 100 µM; with M19-MEL melanoma, > 100 µM; with XF 498 CNS it was 87.9 µM; with A498 renal, > 100 µM. The TGI in the experiment with DMS 114 small cell lung, in the experiment on U251 CNS and with EKVX NSCLC was > 100 µM each time.
`N#CN/C(N)=N/C/N=C(\N)NC#N`: the total growth inhibition concentration (TGI) in the experiment with DLD-1 colon, in the experiment on HOP-18 NSCLC, in the experiment with SNB-75 CNS, in the experiment with HOP-62 NSCLC, in the experiment on KM12 colon and in the experiment with M19-MEL melanoma was > 100 µM throughout. Also, the TGI with A498 renal, in the experiment on DMS 114 small cell lung, with U251 CNS and in the experiment with EKVX NSCLC was > 100 µM each time.
In the case of `CCN(CC)CCCNc1ccc2nc(C)n3c4ccc(O)cc4c(=O)c1c23`, the TGI came out at 29 µM in the experiment on HS 578T breast; 16.2 µM with DLD-1 colon; 25.7 µM in the experiment on HOP-18 NSCLC; 7.69 µM in the experiment with SNB-75 CNS; 19.1 µM in the experiment with HOP-62 NSCLC; 17.4 µM with KM12 colon. The TGI in the experiment with M19-MEL melanoma came out at 23.8 µM; with XF 498 CNS, 23.3 µM; with A498 renal, 24.5 µM; in the experiment with DMS 114 small cell lung it was 21.5 µM; with U251 CNS it was 21 µM; in the experiment on EKVX NSCLC it was 24.4 µM.
Regarding `CC1=Nc2c(ccc3c2C(=O)c2ccccc2C3=O)NC(c2cccc3c2CCC3)C1` (centres undefined), the TGI was > 100 µM with DLD-1 colon; > 100 µM in the experiment on HOP-18 NSCLC; > 100 µM in the experiment with SNB-75 CNS; > 100 µM with HOP-62 NSCLC; > 100 µM in the experiment on KM12 colon; > 72.6 µM in the experiment on M19-MEL melanoma. Moreover, the TGI in the experiment with XF 498 CNS, in the experiment with A498 renal, in the experiment on U251 CNS and in the experiment with EKVX NSCLC was > 100 µM in each case.
In the case of `CN(Cc1cnc2nc(N)nc(N)c2n1)c1ccc(C(=O)N[C@@H](CCC(=O)O)C(=O)O)cc1`, the TGI in the experiment on HS 578T breast was > 250 µM; in the experiment with DLD-1 colon, > 250 µM; in the experiment with KM12 colon, 239 µM and > 250 µM; in the experiment with M19-MEL melanoma, > 250 µM; with XF 498 CNS, 184 µM; with A498 renal, 116 µM. Also, the TGI with DMS 114 small cell lung is 191 µM; with U251 CNS, > 250 µM; in the experiment on EKVX NSCLC, > 250 µM. For the same compound, the GI50 is 0.714 pM in the experiment with HOP-18 NSCLC and 1.05 µM in the experiment with A498 renal.
`CC(=O)OCC1OC(n2cc(F)c(=O)[nH]c2=O)C(NC(=O)OCc2ccccc2)C(OC(C)=O)C1OC(C)=O` (centres undefined): the TGI in the experiment on DLD-1 colon, with HOP-18 NSCLC, in the experiment with SNB-75 CNS, in the experiment with HOP-62 NSCLC, with KM12 colon and in the experiment with M19-MEL melanoma was > 100 µM each time. For the same compound, the TGI with XF 498 CNS, in the experiment on A498 renal, in the experiment with DMS 114 small cell lung, in the experiment with U251 CNS and in the experiment with EKVX NSCLC was > 100 µM throughout.
As to `CC1=C(C(=O)CC(=O)C(=O)Nc2cc(C)ccc2C)Sc2ccccc2N1`, the TGI in the experiment on DLD-1 colon, in the experiment on HOP-18 NSCLC, in the experiment with HOP-62 NSCLC, with KM12 colon, in the experiment on M19-MEL melanoma and in the experiment with XF 498 CNS was > 100 µM in each case. The TGI in the experiment on DMS 114 small cell lung, in the experiment on U251 CNS and in the experiment on EKVX NSCLC was > 100 µM each time.
